The values below are quoted from earlier work in US20230131493A1, “METHODS OF TREATING AGITATION ASSOCIATED WITH ALZHEIMER'S DISEASE” (Avanir Phrmaceuticals Inc., priority 2021, published 2023).

The structures appear in SMILES notation. Counter-ions that a name gives are not always drawn.

For data set [1] the following is noted: a P-glycoprotein substrate.
The next data set deals with sigma-1 receptor (Homo sapiens, UniProt Q99720).
sigma-1 receptor, sequence (Q99720 whole entry, species assumed): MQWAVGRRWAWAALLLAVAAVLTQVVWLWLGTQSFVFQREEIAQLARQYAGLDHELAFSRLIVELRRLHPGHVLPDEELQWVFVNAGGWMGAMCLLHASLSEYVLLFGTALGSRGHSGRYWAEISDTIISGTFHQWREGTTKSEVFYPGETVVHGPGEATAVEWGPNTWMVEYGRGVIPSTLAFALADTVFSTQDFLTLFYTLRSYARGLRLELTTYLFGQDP

Take `C=C[C@H]1CN2CC[C@H]1C[C@@H]2[C@@H](O)c1ccnc2ccc(OC)cc12.C=C[C@H]1CN2CC[C@H]1C[C@@H]2[C@@H](O)c1ccnc2ccc(OC)cc12.O=S(=O)(O)O` [Quinidine, quinidine sulfate]: the “serum digoxin levels on concomitant administration with digoxin” value in data set [1] is given as “may be as much as doubled”. As to `[2H]C([2H])([2H])Oc1ccc2c(c1)[C@]13CCCC[C@@H]1[C@H](C2)N(C([2H])([2H])[2H])CC3` [d6-DM, deuterated [d6]-dextromethorphan hydrobromide], the receptor binding entry at sigma-1 receptor is listed as “binds to the sigma-1 receptor”.
